{
  "source": "patent US20230346784A1",
  "about": "(priority 2020, published 2023)",
  "key": {"[1]": {"test_system": "APH", "experiment": "APH inhibition / IC50 threshold used with simulated concentrations (FIG. 11)", "set-up": "species or system human", "conditions": "dotted line in FIG. 11, serum ALXN2040 concentration"}, "[2]": {"test_system": "C5b-9 deposition on TF1PIGAnull cells", "type": "cell-based, human"}, "[3]": {"test_system": "C3c deposition on TF1PIGAnull cells", "type": "cell-based, human"}, "[4]": {"test_system": "TF1PIGAnull cells", "type": "cell-based, human"}, "[5]": {"test_system": "SARS-CoV-2 spike proteins binding to TF1PIGAnull cells", "experiment": "Flow cytometry of coronavirus protein binding to TF1PIGAnull cells (heparan sulfate blockade, sialidase treatment)", "set-up": "species or system human", "conditions": "sulfate sodium salt; for binding of S1 subunit to TF1PIGAnull cells: 5 μg/mL His-tagged S1 co-incubated with 2 mg/mL heparan sulfate solution; for binding of S2 subunit to TF1PIGAnull cells: 5 μg/mL His-tagged S2 co-incubated with 2 mg/mL heparan sulfate solution"}},
  "note": "“Also recorded” adds a separate entry of the source.",
  "data": [
    {"compound": "CC(=O)c1nn(CC(=O)N2C[C@H](F)C[C@H]2C(=O)Nc2cccc(Br)n2)c2ccc(-c3cnc(C)nc3)cc12", "note": "[Compound 1, danicopan]", "values": [
      {"measurement": "IC50 value", "setting": "[1]", "result": 0.235, "unit": "µg/mL"}
    ]},
    {"compound": "CC(=O)c1nn(CC(=O)N2[C@H]3C[C@]4(C[C@@H]24)Cn2cc(nn2)COCc2ccc(Br)nc2NC3=O)c2ccc(-c3cnc(C)nc3)cc12", "note": "[Compound 2]", "values": [
      {"measurement": "C5b-9 deposition induced by S1 and S2", "setting": "[2]", "result": "inhibit"},
      {"measurement": "S1-induced C5b-9 deposition", "setting": "[2]", "result": "blocking; also recorded: completely blocked"},
      {"measurement": "S2-induced C5b-9 deposition", "setting": "[2]", "result": "blocking"},
      {"measurement": "C3c deposition induced by S1 and S2", "setting": "[3]", "result": "more potent in blocking C3c deposition; also recorded: inhibit"},
      {"measurement": "S1-induced C3c deposition", "setting": "[3]", "result": "blocking; also recorded: completely blocked"},
      {"measurement": "S2-induced C3c deposition", "setting": "[3]", "result": "blocking"},
      {"measurement": "cell killing in the mHam assay induced by S1 and S2", "setting": "[4]", "result": "inhibited; also recorded: prevented cell death"}
    ]},
    {"compound": "Heparan sulfate sodium salt", "values": [
      {"measurement": "binding of S1 subunit to TF1PIGAnull cells", "setting": "[5]; listed as HS", "result": "significantly blocked"},
      {"measurement": "binding of S1 subunit to TF1PIGAnull cells", "setting": "[5]", "result": "completely blocked"},
      {"measurement": "binding of S2 subunit to TF1PIGAnull cells", "setting": "[5]; listed as HS", "result": "significantly blocked"},
      {"measurement": "binding of S2 subunit to TF1PIGAnull cells", "setting": "[5]", "result": "completely blocked"}
    ]}
  ]
}
